{"source": "patent US7429578B2", "about": "“Tricyclic inhibitors of poly(ADP-ribose) polymerases” (Agouron Pharmaceuticals, Inc., priority 1999, dated 2008)", "key": {"purified PARP protein": {"target": "purified PARP protein (Homo sapiens, UniProt P09874)", "sequence (P09874 whole entry)": "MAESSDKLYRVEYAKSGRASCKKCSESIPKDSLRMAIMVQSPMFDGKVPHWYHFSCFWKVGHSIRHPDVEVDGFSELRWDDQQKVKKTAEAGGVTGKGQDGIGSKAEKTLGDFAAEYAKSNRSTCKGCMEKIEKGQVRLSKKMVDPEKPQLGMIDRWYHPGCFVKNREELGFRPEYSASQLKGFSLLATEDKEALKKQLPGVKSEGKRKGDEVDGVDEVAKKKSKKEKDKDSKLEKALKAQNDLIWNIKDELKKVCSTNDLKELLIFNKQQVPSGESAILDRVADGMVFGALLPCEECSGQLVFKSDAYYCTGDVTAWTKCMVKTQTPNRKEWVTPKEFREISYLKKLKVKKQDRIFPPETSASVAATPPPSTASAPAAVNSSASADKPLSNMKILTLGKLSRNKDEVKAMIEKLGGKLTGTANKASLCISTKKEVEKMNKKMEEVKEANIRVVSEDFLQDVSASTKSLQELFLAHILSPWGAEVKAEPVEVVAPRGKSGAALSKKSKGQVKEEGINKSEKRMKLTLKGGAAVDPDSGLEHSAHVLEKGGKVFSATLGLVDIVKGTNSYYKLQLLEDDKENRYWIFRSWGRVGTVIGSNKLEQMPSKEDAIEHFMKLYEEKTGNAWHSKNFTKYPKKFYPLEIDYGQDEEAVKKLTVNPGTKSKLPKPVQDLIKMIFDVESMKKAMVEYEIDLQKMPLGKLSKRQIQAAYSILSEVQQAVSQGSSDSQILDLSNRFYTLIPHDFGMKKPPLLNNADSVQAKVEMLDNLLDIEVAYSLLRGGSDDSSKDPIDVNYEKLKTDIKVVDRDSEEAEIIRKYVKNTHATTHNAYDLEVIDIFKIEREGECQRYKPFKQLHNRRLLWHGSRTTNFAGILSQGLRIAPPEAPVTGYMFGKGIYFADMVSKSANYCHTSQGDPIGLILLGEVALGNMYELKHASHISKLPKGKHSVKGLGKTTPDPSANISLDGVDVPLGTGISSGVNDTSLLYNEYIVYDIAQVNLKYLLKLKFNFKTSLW", "assay": "PARP enzyme inhibition assay", "assay_type": "biochemical", "conditions": "[32P]NAD+ incorporation, 500 μM NAD+, 25° C.; two values in a cell = tested twice; read-out: Inhibition Constant Ki"}, "A549 cells": {"system": "A549 cells", "assay": "Cytotoxicity potentiation assay (topotecan)", "assay_type": "cell-based", "conditions": "test compound at 0.4 μM, ratio of IC50 of topotecan alone to IC50 of topotecan with test compound"}}}
{"smiles": "O=C1NCCc2c(-c3cccc(CO)c3)[nH]c3cccc1c23", "note": "[Compound 16, 2-(3-Hydroxymethylphenyl)-3,4,5,6-tetrahydro-1H-azepino[5,4,3-cd]indol-6-one]", "values": [{"measurement": "melting point", "result": "258 to 259 °C (dec.)"}, {"measurement": "Ki", "setting": "purified PARP protein", "result": 5, "unit": "nM"}, {"measurement": "Cytotoxicity Potentiation PF50", "setting": "A549 cells", "result": 1.9}]}
{"smiles": "CN(C)Cc1cccc(-c2[nH]c3cccc4c3c2CCNC4=O)c1", "note": "[Compound 22, 2-(3-(N,N-Dimethylamino)methylphenyl)-3,4,5,6-tetrahydro-1H-azepino[5,4,3-cd]indol-6-one]", "values": [{"measurement": "melting point", "result": "222 to 225", "unit": "°C"}, {"measurement": "Ki", "setting": "purified PARP protein", "result": 7.2, "unit": "nM"}, {"measurement": "Cytotoxicity Potentiation PF50", "setting": "A549 cells", "result": 2.3}]}
{"smiles": "O=C1NCCc2c(-c3cccc(C(F)(F)F)c3)[nH]c3cccc1c23", "note": "[Compound 30, 2-(3-Trifluoromethyl-phenyl)-1,3,4,5-tetrahydro-azepino[5,4,3-cd]indol-6-one]", "values": [{"measurement": "melting point", "result": "212.5 to 213.5", "unit": "°C"}, {"measurement": "Ki", "setting": "purified PARP protein", "result": 6.3, "unit": "nM"}, {"measurement": "Cytotoxicity Potentiation PF50", "setting": "A549 cells", "result": 2.4}]}
{"smiles": "CNCc1cccc(-c2[nH]c3cccc4c3c2CCNC4=O)c1", "note": "[Compound PP, 2-(3-(N-Methylamino)methylphenyl)-3,4,5,6-tetrahydro-1H-azepino[5,4,3-cd]indol-6-one]", "values": [{"measurement": "melting point", "result": "190 to 192", "unit": "°C"}, {"measurement": "Ki", "setting": "purified PARP protein", "result": 5.3, "unit": "nM"}, {"measurement": "Cytotoxicity Potentiation PF50", "setting": "A549 cells", "result": 2.3}]}
{"smiles": "CN(C)Cc1ccc(-c2[nH]c3cccc4c3c2CCNC4=O)cc1F", "note": "[Compound PPP, 2-(4-Dimethylaminomethyl-3-fluoro-phenyl)-1,3,4,5-tetrahydro-azepino[5,4,3-cd]indol-6-one]", "values": [{"measurement": "melting point", "result": "221.5 to 222.5", "unit": "°C"}, {"measurement": "Ki", "setting": "purified PARP protein", "result": 9.4, "unit": "nM"}, {"measurement": "Cytotoxicity Potentiation PF50", "setting": "A549 cells", "result": 2.1}]}
{"smiles": "O=C(Nc1ccc(F)cc1)c1[nH]c2cccc3c2c1CCNC3=O", "note": "[Compound YYY, 6-Oxo-3,4,5,6-tetrahydro-1H-azepino[5,4,3-cd]indole-2-carboxylic acid (4-fluorophenyl)-amide]", "values": [{"measurement": "Ki", "setting": "purified PARP protein", "result": 6.3, "unit": "nM"}, {"measurement": "Cytotoxicity Potentiation PF50", "setting": "A549 cells", "result": 1.5}]}
{"smiles": "O=C1NCCc2c(-c3ccc(Cl)cc3)[nH]c3cccc1c23", "note": "[GGG, 2-(4-Chloro-phenyl)-1,3,4,5-tetrahydro-azepino[5,4,3-cd]indol-6-one]", "values": [{"measurement": "melting point", "result": "250 to 252", "unit": "°C"}, {"measurement": "Ki", "setting": "purified PARP protein", "result": 4.1, "unit": "nM"}, {"measurement": "Cytotoxicity Potentiation PF50", "setting": "A549 cells", "result": 1.9}]}
{"smiles": "CNCc1cccc(-c2[nH]c3cc(F)cc4c3c2CCNC4=O)c1", "note": "[HHHH, 8-Fluoro-2-(3-methylaminomethyl-phenyl)-1,3,4,5-tetrahydro-azepino[5,4,3-cd]indol-6-one]", "values": [{"measurement": "melting point", "result": "270 to 272 °C (dec.)"}, {"measurement": "Ki", "setting": "purified PARP protein", "result": 2.2, "unit": "nM"}, {"measurement": "Cytotoxicity Potentiation PF50", "setting": "A549 cells", "result": 1.9}]}
{"smiles": "O=C1NCCc2c(-c3ccc(CN4CCCC4)cc3)[nH]c3cc(F)cc1c23", "note": "[JJJJ, 8-Fluoro-2-(4-pyrrolidin-1-ylmethyl-phenyl)-1,3,4,5-tetrahydro-azepino[5,4,3-cd]indol-6-one]", "values": [{"measurement": "Ki", "setting": "purified PARP protein", "result": 4.4, "unit": "nM"}, {"measurement": "Cytotoxicity Potentiation PF50", "setting": "A549 cells", "result": 2.4}]}
{"smiles": "O=C1NCCc2c(-c3ccc(CCN4CCCC4)cc3)[nH]c3cccc1c23", "note": "[MMM, 2-[4-(2-Pyrrolidin-1-yl-ethyl)-phenyl]-1,3,4,5-tetrahydro-azepino[5,4,3-cd]indol-6-one]", "values": [{"measurement": "melting point", "result": "228 to 229 °C (dec.)"}, {"measurement": "Ki", "setting": "purified PARP protein", "result": 9.4, "unit": "nM"}, {"measurement": "Cytotoxicity Potentiation PF50", "setting": "A549 cells", "result": 2.3}]}
{"smiles": "CNCc1ccc(-c2[nH]c3cccc4c3c2CCNC4=O)cc1", "note": "[OO, 2-(4-(N-Methylamino)methylphenyl)-3,4,5,6-tetrahydro-1H-azepino[5,4,3-cd]indol-6-one]", "values": [{"measurement": "Ki", "setting": "purified PARP protein", "result": 4.1, "unit": "nM"}, {"measurement": "Cytotoxicity Potentiation PF50", "setting": "A549 cells", "result": 2.4}]}
{"smiles": "O=C1NCCc2c(-c3ccc(CN4CCCC4)c(F)c3)[nH]c3cccc1c23", "note": "[QQQ, 2-(3-Fluoro-4-pyrrolidin-1-ylmethyl-phenyl)-1,3,4,5-tetrahydro-azepino[5,4,3-cd]indol-6-one]", "values": [{"measurement": "melting point", "result": "139 to 140 °C (dec.)"}, {"measurement": "Ki", "setting": "purified PARP protein", "result": 10.2, "unit": "nM"}, {"measurement": "Cytotoxicity Potentiation PF50", "setting": "A549 cells", "result": 2.3}]}
{"smiles": "O=C1NCCc2c(-c3cccc(CN4CCCC4)c3)[nH]c3cccc1c23", "note": "[TTTT, 2-(3-Pyrrolidin-1-ylmethylphenyl)-3,4,5,6-tetrahydro-1H-azepino[5,4,3-cd]indol-6-one]", "values": [{"measurement": "melting point", "result": "219 to 223 °C (dec.)"}, {"measurement": "Ki", "setting": "purified PARP protein", "result": 7.4, "unit": "nM"}, {"measurement": "Cytotoxicity Potentiation PF50", "setting": "A549 cells", "result": 1.6}]}
{"smiles": "O=C1NCCc2c(-c3cccc(Oc4ccc(F)cc4)c3)[nH]c3cccc1c23", "note": "[UU, 2-[3-(4-Fluoro-phenoxy)-phenyl]-1,3,4,5-tetrahydro-azepino[5,4,3-cd]indol-6-one]", "values": [{"measurement": "melting point", "result": "240 to 241", "unit": "°C"}, {"measurement": "Ki", "setting": "purified PARP protein", "result": 10, "unit": "nM"}, {"measurement": "Cytotoxicity Potentiation PF50", "setting": "A549 cells", "result": 1.8}]}
{"smiles": "O=C1NCCc2c(-c3ccc(-c4ccccc4)cc3)[nH]c3cccc1c23", "note": "[VV, 2-Biphenyl-4-yl-1,3,4,5-tetrahydro-azepino[5,4,3-cd]indol-6-one]", "values": [{"measurement": "melting point", "result": "277 to 279 °C (dec.)"}, {"measurement": "Ki", "setting": "purified PARP protein", "result": 10, "unit": "nM"}, {"measurement": "Cytotoxicity Potentiation PF50", "setting": "A549 cells", "result": 2.0}]}
{"smiles": "O=C1NCCc2c(-c3ccc(CN4CCOCC4)cc3)[nH]c3cccc1c23", "note": "[VVVV, 2-(4-Morpholin-4-ylmethylphenyl)-3,4,5,6-tetrahydro-1H-azepino[5,4,3-cd]indol-6-one]", "values": [{"measurement": "Ki", "setting": "purified PARP protein", "result": 13.2, "unit": "nM"}, {"measurement": "Cytotoxicity Potentiation PF50", "setting": "A549 cells", "result": 2.1}]}
{"smiles": "C[N+](C)([O-])Cc1ccc(-c2[nH]c3cccc4c3c2CCNC4=O)cc1", "note": "[XXXX, 2-(4-(N,N-Dimethylamino)methylphenyl)-3,4,5,6-tetrahydro-1H-azepino[5,4,3-cd]indol-6-one, N-oxide]", "values": [{"measurement": "Ki", "setting": "purified PARP protein", "result": 18, "unit": "nM"}, {"measurement": "Cytotoxicity Potentiation PF50", "setting": "A549 cells", "result": 1.7}]}
